From publication PMC9851200, “Multiparameter phenotypic screening for endogenous TFEB and TFE3 translocation identifies novel chemical series modulating lysosome function” (Autophagy, 2022)

Experiments:
Assay type in all cases: binding
[1] = target: T1, kinases (KINOMEscan panel) (Homo sapiens, UniProt Q8N568); conditions: NEW KINOMEscan
T1 sequence (Q8N568 1-766): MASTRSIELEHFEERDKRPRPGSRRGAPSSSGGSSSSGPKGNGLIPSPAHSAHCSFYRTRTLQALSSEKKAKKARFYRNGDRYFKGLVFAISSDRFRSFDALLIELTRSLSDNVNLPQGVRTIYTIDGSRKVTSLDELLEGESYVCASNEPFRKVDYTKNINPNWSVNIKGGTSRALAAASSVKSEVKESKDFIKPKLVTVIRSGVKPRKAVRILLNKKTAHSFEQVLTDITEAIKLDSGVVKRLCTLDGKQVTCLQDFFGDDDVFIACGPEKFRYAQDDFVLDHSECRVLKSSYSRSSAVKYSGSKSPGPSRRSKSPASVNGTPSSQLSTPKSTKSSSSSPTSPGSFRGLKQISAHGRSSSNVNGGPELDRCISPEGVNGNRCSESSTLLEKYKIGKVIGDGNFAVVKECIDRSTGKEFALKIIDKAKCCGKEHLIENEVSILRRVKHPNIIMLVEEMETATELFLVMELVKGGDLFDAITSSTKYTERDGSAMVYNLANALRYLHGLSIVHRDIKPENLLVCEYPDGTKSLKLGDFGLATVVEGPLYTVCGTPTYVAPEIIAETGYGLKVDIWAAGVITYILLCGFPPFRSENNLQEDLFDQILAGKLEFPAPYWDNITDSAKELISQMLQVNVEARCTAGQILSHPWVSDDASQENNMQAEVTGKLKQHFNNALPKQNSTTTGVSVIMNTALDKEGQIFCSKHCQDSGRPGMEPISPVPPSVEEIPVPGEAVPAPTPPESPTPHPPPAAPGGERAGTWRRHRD

[2] = target: T2, kinases (KINOMEscan panel) (Homo sapiens, UniProt P54762); conditions: kinase EPHB1; NEW KINOMEscan
T2 sequence (P54762 18-984): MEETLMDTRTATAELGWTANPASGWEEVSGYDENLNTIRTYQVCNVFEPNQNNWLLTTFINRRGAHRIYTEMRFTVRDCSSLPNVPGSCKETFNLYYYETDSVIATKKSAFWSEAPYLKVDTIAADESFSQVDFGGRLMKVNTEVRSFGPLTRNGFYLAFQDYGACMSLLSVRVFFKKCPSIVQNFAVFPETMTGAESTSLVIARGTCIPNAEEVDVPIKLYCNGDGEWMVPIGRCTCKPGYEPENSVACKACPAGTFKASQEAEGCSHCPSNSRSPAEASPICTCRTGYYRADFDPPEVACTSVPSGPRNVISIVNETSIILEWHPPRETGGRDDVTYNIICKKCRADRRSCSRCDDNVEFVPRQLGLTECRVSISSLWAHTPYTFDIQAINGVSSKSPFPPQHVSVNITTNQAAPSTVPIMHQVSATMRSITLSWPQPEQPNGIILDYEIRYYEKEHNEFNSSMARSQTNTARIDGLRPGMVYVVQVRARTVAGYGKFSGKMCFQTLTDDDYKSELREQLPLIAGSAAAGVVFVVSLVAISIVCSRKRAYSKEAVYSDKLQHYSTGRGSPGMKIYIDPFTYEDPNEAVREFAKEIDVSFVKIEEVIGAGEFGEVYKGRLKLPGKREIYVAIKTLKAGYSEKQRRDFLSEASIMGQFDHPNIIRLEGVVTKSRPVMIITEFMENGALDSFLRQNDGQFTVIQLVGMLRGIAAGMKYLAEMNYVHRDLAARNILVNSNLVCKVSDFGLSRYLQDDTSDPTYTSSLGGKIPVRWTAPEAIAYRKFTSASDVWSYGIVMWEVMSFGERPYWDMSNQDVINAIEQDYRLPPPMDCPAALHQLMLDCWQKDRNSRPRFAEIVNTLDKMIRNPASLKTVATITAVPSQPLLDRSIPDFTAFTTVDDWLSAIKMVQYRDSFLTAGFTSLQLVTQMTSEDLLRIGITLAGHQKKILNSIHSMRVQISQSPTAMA

[3] = target: T3, kinases (KINOMEscan panel) (Homo sapiens, UniProt Q8IVH8); conditions: NEW KINOMEscan
T3 sequence (Q8IVH8 1-894): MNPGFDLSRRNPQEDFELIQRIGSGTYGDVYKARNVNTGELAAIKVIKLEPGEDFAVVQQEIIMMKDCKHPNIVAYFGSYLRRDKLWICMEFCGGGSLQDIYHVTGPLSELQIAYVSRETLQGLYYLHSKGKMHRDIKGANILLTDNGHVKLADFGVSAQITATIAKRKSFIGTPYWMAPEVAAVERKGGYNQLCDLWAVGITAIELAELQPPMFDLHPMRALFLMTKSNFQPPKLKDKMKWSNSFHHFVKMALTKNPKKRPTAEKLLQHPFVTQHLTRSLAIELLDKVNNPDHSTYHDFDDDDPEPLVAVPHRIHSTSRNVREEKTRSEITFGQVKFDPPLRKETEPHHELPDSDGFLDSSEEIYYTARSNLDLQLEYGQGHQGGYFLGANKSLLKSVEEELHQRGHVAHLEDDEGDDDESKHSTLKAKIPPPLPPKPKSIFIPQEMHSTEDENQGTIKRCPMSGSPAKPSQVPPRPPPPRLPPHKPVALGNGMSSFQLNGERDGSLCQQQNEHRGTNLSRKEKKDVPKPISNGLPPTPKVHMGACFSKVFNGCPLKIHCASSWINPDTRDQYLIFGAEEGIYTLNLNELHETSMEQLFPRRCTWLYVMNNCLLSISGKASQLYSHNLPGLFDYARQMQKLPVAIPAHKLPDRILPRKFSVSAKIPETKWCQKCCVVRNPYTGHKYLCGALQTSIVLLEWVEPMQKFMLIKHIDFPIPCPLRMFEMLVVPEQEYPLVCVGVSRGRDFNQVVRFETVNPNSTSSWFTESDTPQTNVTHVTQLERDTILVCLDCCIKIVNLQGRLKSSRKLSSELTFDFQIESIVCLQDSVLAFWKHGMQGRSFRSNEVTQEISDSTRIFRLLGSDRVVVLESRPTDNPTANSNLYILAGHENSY

[4] = target: kinases (KINOMEscan panel) (Homo sapiens, UniProt P16234); conditions: PDGFRA; NEW KINOMEscan
Sequence of kinases (KINOMEscan panel) (Homo sapiens, UniProt P16234) (P16234 24-1089): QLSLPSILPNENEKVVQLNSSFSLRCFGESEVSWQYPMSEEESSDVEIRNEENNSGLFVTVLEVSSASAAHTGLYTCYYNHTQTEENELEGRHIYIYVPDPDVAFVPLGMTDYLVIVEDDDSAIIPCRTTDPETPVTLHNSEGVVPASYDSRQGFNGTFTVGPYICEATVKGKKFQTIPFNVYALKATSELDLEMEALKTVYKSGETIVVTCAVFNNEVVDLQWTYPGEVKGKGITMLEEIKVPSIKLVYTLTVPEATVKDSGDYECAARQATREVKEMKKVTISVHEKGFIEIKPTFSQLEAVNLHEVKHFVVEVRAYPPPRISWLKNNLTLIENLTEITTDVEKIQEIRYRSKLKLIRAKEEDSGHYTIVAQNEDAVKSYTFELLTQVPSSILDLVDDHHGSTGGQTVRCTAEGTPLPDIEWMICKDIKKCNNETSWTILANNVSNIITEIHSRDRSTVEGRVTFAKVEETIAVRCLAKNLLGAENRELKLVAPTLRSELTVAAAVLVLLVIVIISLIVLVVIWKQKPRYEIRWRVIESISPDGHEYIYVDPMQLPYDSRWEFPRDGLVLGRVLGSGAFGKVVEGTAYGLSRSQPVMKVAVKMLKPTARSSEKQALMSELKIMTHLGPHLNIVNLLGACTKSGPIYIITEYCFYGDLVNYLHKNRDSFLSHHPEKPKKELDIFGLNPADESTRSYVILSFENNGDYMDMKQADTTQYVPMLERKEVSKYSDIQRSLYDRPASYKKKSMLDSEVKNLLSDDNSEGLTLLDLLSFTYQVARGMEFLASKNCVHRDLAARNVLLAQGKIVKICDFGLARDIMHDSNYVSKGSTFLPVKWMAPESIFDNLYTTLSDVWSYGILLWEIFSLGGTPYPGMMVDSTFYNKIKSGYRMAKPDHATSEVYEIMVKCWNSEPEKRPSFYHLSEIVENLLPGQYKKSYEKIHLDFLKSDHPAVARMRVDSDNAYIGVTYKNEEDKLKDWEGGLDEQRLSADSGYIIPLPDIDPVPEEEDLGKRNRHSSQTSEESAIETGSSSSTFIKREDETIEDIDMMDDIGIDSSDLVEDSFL

[5] = target: kinases (KINOMEscan panel) (Homo sapiens, UniProt P53778)
Sequence of kinases (KINOMEscan panel) (Homo sapiens, UniProt P53778) (P53778 whole entry): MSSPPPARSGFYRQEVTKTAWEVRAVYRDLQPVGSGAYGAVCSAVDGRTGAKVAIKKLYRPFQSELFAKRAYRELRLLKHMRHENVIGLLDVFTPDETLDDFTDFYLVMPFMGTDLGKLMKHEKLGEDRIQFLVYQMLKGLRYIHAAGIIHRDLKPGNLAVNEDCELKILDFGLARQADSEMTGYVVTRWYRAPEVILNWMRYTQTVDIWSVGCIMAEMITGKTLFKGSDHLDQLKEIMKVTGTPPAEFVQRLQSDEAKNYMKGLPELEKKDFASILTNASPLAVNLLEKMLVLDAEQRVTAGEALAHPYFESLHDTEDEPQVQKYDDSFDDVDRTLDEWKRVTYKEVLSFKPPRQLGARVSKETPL

[6] = target: kinases (KINOMEscan panel) (Homo sapiens, UniProt P06239); conditions: LCK; NEW KINOMEscan
Sequence of kinases (KINOMEscan panel) (Homo sapiens, UniProt P06239) (P06239 whole entry): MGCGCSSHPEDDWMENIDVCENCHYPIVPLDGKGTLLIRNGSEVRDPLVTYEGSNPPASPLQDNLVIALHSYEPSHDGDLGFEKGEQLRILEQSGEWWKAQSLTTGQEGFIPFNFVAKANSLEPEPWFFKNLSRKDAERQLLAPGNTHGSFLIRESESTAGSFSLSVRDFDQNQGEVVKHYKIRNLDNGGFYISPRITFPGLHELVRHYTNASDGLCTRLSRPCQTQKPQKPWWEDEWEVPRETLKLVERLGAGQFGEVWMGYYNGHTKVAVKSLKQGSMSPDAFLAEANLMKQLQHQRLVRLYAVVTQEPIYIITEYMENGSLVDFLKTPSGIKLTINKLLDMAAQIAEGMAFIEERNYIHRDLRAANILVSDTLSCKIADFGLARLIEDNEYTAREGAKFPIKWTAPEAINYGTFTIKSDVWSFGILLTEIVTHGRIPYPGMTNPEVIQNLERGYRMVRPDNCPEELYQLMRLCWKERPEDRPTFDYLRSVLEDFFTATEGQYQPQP

[7] = target: kinases (KINOMEscan panel) (Homo sapiens, UniProt Q9P2K8, S808G)
Sequence of kinases (KINOMEscan panel) (Homo sapiens, UniProt Q9P2K8, S808G) (Q9P2K8 whole entry S808G): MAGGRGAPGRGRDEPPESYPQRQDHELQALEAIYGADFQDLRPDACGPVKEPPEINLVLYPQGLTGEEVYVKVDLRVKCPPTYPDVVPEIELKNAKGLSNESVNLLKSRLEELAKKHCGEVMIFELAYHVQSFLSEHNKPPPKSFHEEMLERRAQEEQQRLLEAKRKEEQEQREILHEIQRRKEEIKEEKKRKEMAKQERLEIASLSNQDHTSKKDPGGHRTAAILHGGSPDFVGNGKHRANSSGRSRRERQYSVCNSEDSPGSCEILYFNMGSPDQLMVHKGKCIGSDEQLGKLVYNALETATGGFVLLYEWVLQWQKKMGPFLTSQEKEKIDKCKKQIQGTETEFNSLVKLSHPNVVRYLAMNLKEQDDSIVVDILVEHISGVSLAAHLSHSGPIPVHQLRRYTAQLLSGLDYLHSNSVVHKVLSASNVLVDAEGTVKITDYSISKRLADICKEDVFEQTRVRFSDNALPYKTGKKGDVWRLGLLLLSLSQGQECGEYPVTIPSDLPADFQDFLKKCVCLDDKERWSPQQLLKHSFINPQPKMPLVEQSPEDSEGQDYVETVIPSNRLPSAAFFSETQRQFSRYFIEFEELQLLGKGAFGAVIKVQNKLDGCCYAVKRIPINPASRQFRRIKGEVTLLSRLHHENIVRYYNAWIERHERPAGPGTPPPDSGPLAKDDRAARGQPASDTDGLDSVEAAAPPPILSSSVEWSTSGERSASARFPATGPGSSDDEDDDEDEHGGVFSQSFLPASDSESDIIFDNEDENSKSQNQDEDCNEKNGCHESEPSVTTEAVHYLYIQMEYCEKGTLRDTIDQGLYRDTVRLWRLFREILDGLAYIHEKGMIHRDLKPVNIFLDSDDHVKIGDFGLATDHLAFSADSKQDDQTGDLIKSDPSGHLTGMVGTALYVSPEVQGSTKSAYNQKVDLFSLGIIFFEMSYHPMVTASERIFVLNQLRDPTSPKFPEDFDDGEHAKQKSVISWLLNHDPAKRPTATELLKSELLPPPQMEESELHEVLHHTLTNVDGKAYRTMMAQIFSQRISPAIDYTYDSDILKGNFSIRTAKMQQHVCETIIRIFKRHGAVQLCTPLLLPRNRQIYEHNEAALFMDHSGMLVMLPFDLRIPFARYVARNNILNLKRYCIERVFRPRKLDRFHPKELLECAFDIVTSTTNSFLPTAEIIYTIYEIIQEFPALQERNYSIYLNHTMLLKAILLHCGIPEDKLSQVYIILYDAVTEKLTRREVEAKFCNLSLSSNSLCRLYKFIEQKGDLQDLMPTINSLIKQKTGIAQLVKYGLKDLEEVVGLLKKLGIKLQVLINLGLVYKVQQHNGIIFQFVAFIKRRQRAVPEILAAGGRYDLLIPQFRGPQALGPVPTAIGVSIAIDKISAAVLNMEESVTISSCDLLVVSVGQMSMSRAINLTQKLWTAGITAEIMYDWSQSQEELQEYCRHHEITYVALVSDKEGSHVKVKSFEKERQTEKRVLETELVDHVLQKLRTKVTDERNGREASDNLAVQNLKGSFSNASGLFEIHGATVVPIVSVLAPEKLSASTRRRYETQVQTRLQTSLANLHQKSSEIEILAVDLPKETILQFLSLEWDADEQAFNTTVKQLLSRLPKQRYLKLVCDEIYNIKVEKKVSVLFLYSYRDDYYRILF

[8] = target: kinases (KINOMEscan panel) (Homo sapiens, UniProt P35590); conditions: TIE1; NEW KINOMEscan
Sequence of kinases (KINOMEscan panel) (Homo sapiens, UniProt P35590) (P35590 22-1138): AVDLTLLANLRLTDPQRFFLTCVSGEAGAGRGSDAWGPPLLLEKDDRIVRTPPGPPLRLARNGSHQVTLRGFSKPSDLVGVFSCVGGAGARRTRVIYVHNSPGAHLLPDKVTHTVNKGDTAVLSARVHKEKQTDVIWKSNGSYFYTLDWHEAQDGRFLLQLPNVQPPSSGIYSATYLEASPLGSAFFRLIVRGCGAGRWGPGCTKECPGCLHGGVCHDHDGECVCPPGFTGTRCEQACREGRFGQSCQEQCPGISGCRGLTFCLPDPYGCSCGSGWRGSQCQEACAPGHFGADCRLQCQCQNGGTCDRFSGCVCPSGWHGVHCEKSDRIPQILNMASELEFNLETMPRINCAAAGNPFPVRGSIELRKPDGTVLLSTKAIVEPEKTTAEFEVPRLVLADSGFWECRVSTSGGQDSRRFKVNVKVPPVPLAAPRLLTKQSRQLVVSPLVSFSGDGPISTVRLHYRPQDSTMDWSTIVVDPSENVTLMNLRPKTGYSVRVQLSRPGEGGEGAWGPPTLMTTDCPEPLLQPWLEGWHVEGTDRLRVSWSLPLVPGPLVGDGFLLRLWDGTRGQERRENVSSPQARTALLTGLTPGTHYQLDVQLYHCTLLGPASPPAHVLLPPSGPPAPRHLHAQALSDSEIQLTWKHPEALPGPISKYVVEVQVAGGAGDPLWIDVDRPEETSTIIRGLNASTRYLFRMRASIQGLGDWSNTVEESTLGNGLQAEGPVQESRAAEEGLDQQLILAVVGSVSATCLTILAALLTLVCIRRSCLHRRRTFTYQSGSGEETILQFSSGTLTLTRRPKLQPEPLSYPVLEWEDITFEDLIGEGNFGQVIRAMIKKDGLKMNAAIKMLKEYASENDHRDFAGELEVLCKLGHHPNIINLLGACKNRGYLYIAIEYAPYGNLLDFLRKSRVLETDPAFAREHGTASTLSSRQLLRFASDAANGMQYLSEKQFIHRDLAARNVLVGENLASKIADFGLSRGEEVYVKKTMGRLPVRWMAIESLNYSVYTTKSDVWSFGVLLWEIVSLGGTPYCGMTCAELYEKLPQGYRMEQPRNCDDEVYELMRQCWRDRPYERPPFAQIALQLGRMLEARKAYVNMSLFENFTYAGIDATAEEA

## Cc1cccc(-c2nc(Nc3ccc4nn(C)cc4c3)c3ccccc3n2)n1 [NK167]
[1]
  KINOMEscan DCLK2: 11
[2]
  KINOMEscan EPHB1: 0
[3]
  KINOMEscan MAP4K3: 20
[4]
  KINOMEscan PDGFRA: 0
[5]
  KINOMEscan MAPK12/p38-gamma: 43
[6]
  KINOMEscan LCK: 0
[7]
  KINOMEscan EIF2AK4/GCN2(Kin.Dom.2,S808G): 38
[8]
  KINOMEscan TIE1: 0

## Cc1cccc(-c2nc(N(C)c3ccc4ncsc4c3)c3ccccc3n2)n1 [NK-161]
[1]
  KINOMEscan DCLK2: 25
[2]
  KINOMEscan EPHB1: 14
[3]
  KINOMEscan MAP4K3: 22
[4]
  KINOMEscan PDGFRA: 0
[5]
  KINOMEscan MAPK12/p38-gamma: 27
[6]
  KINOMEscan LCK: 2
[7]
  KINOMEscan EIF2AK4/GCN2(Kin.Dom.2,S808G): 53
[8]
  KINOMEscan TIE1: 0
